Reference: ChEMBL document CHEMBL5154741, “Antibacterial alkylguanidino ureas: Molecular simplification approach, searching for membrane-based MoA” (Eur J Med Chem, 2022)
Calls of active or inactive are those of the source. The rule behind the calls is not given here.

How the values were obtained:
Lipid bilayer [1] = assay: Binding affinity to bacterial membrane mimic POPG large unilamellar vesicle assessed as hyperchromic shift at 125 uM measured after 1 hr by UV-Vis spectrophotometric analysis
Cell membrane [2] = assay: Disruption of membrane integrity in Acinetobacter baumannii ATCC 17978 assessed as increase in PI uptake at 16 ug/ml measured after 15 mins by SYTO9/PI staining based fluorometric analysis; conditions: dose 16.0 µg/ml
Bacillus subtilis = assay: Antibacterial activity against Bacillus subtilis ATCC 6633 assessed as bacterial growth inhibition incubated for 18 hrs by CLSI based micro-dilution broth method; assay type: functional
Enterococcus faecalis = assay: Antibacterial activity against Enterococcus faecalis ATCC 19433 assessed as bacterial growth inhibition incubated for 18 hrs by micro-dilution broth method; assay type: functional
Streptococcus pyogenes = assay: Antibacterial activity against Streptococcus pyogenes ATCC 12344 assessed as bacterial growth inhibition incubated for 18 hrs by micro-dilution broth method; assay type: functional
Staphylococcus aureus = assay: Antibacterial activity against Staphylococcus aureus ATCC 25923 assessed as bacterial growth inhibition incubated for 18 hrs by micro-dilution broth method; assay type: functional
Escherichia coli = assay: Antibacterial activity against Escherichia coli CCUG assessed as bacterial growth inhibition incubated for 18 hrs by micro-dilution broth method; assay type: functional
Klebsiella pneumoniae = assay: Antibacterial activity against Klebsiella pneumoniae ATCC 13833 assessed as bacterial growth inhibition incubated for 18 hrs by micro-dilution broth method; assay type: functional
Acinetobacter baumannii = assay: Antibacterial activity against Acinetobacter baumannii ATCC 17978 assessed as bacterial growth inhibition incubated for 18 hrs by micro-dilution broth method; assay type: functional
Pseudomonas aeruginosa = assay: Antibacterial activity against Pseudomonas aeruginosa ATCC 27853 assessed as bacterial growth inhibition incubated for 18 hrs by micro-dilution broth method; assay type: functional
Lipid bilayer [3] = assay: Binding affinity to bacterial membrane mimic POPG large unilamellar vesicle assessed as bathochromic shift at 125 uM measured at t = 0 by UV-Vis spectrophotometric analysis
[4] = Apparent permeability of the compound across bacterial inner membrane mimic PC-phospholipids in PBS buffer at pH 7.4 incubated for 5 hrs by PAMPA based UV-Vis spectrophotometric analysis; assay type: ADME
[5] = Apparent permeability of the compound across bacterial inner membrane mimic PC-phospholipids in PBS buffer assessed as membrane retention at pH 7.4 incubated for 5 hrs by PAMPA based UV-Vis spectrophotometric analysis; assay type: ADME, cell membranes; conditions: pH 7.4, 5 h
[6] = Apparent permeability of the compound across bacterial inner membrane mimic pure POPG in PBS buffer at pH 7.4 incubated for 5 hrs by PAMPA based UV-Vis spectrophotometric analysis; assay type: ADME
[7] = Apparent permeability of the compound across bacterial inner membrane mimic pure POPG in PBS buffer assessed as membrane retention at pH 7.4 incubated for 5 hrs by PAMPA based UV-Vis spectrophotometric analysis; assay type: ADME, cell membranes; conditions: pH 7.4, 5 h
[8] = Apparent permeability of the compound across bacterial inner membrane mimic POPE/POPG (6:4) in PBS buffer at pH 7.4 incubated for 5 hrs by PAMPA based UV-Vis spectrophotometric analysis; assay type: ADME
[9] = Apparent permeability of the compound across bacterial inner membrane mimic POPE/POPG (6:4) in PBS buffer assessed as membrane retention at pH 7.4 incubated for 5 hrs by PAMPA based UV-Vis spectrophotometric analysis; assay type: ADME, cell membranes; conditions: pH 7.4, 5 h
Cell membrane [10] = assay: Disruption of membrane integrity in Bacillus subtilis ATCC 6633 assessed as increase in PI uptake at 16 ug/ml measured after 15 mins by SYTO9/PI staining based fluorometric analysis; conditions: dose 16.0 µg/ml
Cell membrane [11] = assay: Disruption of membrane integrity in Pseudomonas aeruginosa ATCC 27853 assessed as increase in PI uptake at 16 ug/ml measured every 15 mins for 6 hrs by SYTO9/PI staining based fluorometric analysis; conditions: dose 16.0 µg/ml
Cell membrane [12] = assay: Disruption of membrane integrity in Enterococcus faecalis ATCC 19433 assessed as increase in PI uptake at 16 ug/ml measured after 15 mins by SYTO9/PI staining based fluorometric analysis; conditions: dose 16.0 µg/ml
Cell membrane [13] = assay: Disruption of membrane integrity in Escherichia coli MG1655 assessed as increase in PI uptake at 16 ug/ml measured every 15 mins for 6 hrs by SYTO9/PI staining based fluorometric analysis; conditions: dose 16.0 µg/ml
Cell membrane [14] = assay: Disruption of membrane integrity in Staphylococcus aureus ATCC 25923 assessed as increase in PI uptake at 16 ug/ml measured every 15 mins for 6 hrs by SYTO9/PI staining based fluorometric analysis; assay type: subcellular; conditions: dose 16.0 µg/ml
Cell membrane [15] = assay: Disruption of membrane integrity in Enterococcus faecalis ATCC 19433 assessed as increase in PI positive cells at 16 ug/ml measured after 1 hr by SYTO9/PI staining based confocal laser scanning microscope analysis; assay type: subcellular; conditions: dose 16.0 µg/ml
Cell membrane [16] = assay: Disruption of membrane integrity in Bacillus subtilis ATCC 6633 assessed as increase in PI positive cells at 16 ug/ml measured after 1 hr by SYTO9/PI staining based confocal laser scanning microscope analysis; assay type: subcellular; conditions: dose 16.0 µg/ml
Cell membrane [17] = assay: Disruption of membrane integrity in Acinetobacter baumannii ATCC 17978 assessed as increase in PI positive cells at 16 ug/ml measured after 1 hr by SYTO9/PI staining based confocal laser scanning microscope analysis; conditions: dose 16.0 µg/ml
Cell membrane [18] = assay: Disruption of membrane integrity in Escherichia coli MG1655 assessed as increase in PI positive cells at 16 ug/ml measured after 1 hr by SYTO9/PI staining based confocal laser scanning microscope analysis; assay type: subcellular; conditions: dose 16.0 µg/ml
Cell membrane [19] = assay: Disruption of membrane integrity in Pseudomonas aeruginosa ATCC 27853 assessed as increase in PI positive cells at 16 ug/ml measured after 1 hr by SYTO9/PI staining based confocal laser scanning microscope analysis; assay type: subcellular; conditions: dose 16.0 µg/ml
Cell membrane [20] = assay: Disruption of membrane integrity in Staphylococcus aureus ATCC 25923 assessed as increase in PI positive cells at 16 ug/ml measured after 1 hr by SYTO9/PI staining based confocal laser scanning microscope analysis; assay type: subcellular; conditions: dose 16.0 µg/ml
[21] = Hemolytic activity against human RBC at 1 ug/ml incubated for 30 mins (reference value: 0%); assay type: toxicity, cell-based, Erythrocyte; conditions: human red blood cells (erythrocytes), at 1 µg/mL, read-out: Activity
[22] = Hemolytic activity against human RBC at 2 ug/ml incubated for 30 mins (reference value: 0%); assay type: toxicity, cell-based, Erythrocyte; conditions: human red blood cells (erythrocytes), at 2 µg/mL, read-out: Activity
[23] = Hemolytic activity against human RBC at 4 ug/ml incubated for 30 mins (reference value: 0%); assay type: toxicity, cell-based, Erythrocyte; conditions: human red blood cells (erythrocytes), at 4 µg/mL, read-out: Activity
[24] = Hemolytic activity against human RBC at 8 ug/ml incubated for 30 mins (reference value: 0%); assay type: toxicity, cell-based, Erythrocyte; conditions: human red blood cells (erythrocytes), at 8 µg/mL, read-out: Activity
[25] = Hemolytic activity against human RBC at 16 ug/ml incubated for 30 mins relative to control; assay type: toxicity, cell-based, Erythrocyte; conditions: human red blood cells (erythrocytes), at 16 µg/mL, read-out: Activity
[26] = Hemolytic activity against human RBC at 32 ug/ml incubated for 30 mins (reference value: 0%); assay type: toxicity, cell-based, Erythrocyte; conditions: human red blood cells (erythrocytes), at 32 µg/mL, read-out: Activity
[27] = Hemolytic activity against human RBC at 64 ug/ml incubated for 30 mins (reference value: 0%); assay type: toxicity, cell-based, Erythrocyte; conditions: human red blood cells (erythrocytes), at 64 µg/mL, read-out: Activity
Cell membrane [28] = assay: Disruption of membrane integrity in Acinetobacter baumannii ATCC 17978 assessed as increase in PI uptake at 16 ug/ml measured after 1 hr by SYTO9/PI staining based fluorometric analysis; assay type: subcellular; conditions: dose 16.0 µg/ml
Cell membrane [29] = assay: Disruption of membrane integrity in Bacillus subtilis ATCC 6633 assessed as increase in PI uptake at 16 ug/ml measured after 1 hr by SYTO9/PI staining based fluorometric analysis; assay type: subcellular; conditions: dose 16.0 µg/ml
Cell membrane [30] = assay: Disruption of membrane integrity in Enterococcus faecalis ATCC 19433 assessed as increase in PI uptake at 16 ug/ml measured after 1 hr by SYTO9/PI staining based fluorometric analysis; assay type: subcellular; conditions: dose 16.0 µg/ml
Cell membrane [31] = assay: Disruption of membrane integrity in Escherichia coli MG1655 assessed as increase in PI uptake at 16 ug/ml measured after 1 hr by SYTO9/PI staining based fluorometric analysis; assay type: subcellular; conditions: dose 16.0 µg/ml
Cell membrane [32] = assay: Disruption of membrane integrity in Pseudomonas aeruginosa ATCC 27853 assessed as increase in PI uptake at 16 ug/ml measured after 1 hr by SYTO9/PI staining based fluorometric analysis; assay type: subcellular; conditions: dose 16.0 µg/ml
Cell membrane [33] = assay: Disruption of membrane integrity in Staphylococcus aureus ATCC 25923 assessed as increase in PI uptake at 16 ug/ml measured after 1 hr by SYTO9/PI staining based fluorometric analysis; conditions: dose 16.0 µg/ml

N=C(N)NCCCCCCCCN(CCCCCCCCN)C(=O)N(CCCCCCCCN)CCCCCCCCNC(=N)N.O=C(O)C(F)(F)F
Activity (Lipid bilayer [1]): Active
Activity (Cell membrane [2]): Active
MIC (Bacillus subtilis): 0.5 µg/mL
MIC (Enterococcus faecalis): 8 µg/mL
MIC (Streptococcus pyogenes): 0.25 µg/mL
MIC (Staphylococcus aureus): 0.5 µg/mL
MIC (Escherichia coli): 2 µg/mL
MIC (Klebsiella pneumoniae): 16 µg/mL
MIC (Acinetobacter baumannii): 16 µg/mL
MIC (Pseudomonas aeruginosa): 32 µg/mL
Activity (Lipid bilayer [3]): Active
Papp at 5 h [4]: 0.21 ×10⁻⁶ cm/s
R% [5]: 36.3%
Papp at 5 h [6]: 0.19 ×10⁻⁶ cm/s
R% [7]: 52.4%
Papp at 5 h [8]: 0.18 ×10⁻⁶ cm/s
R% [9]: 47.3%
Activity (Cell membrane [10]): Active
Activity (Cell membrane [11]): Active
Activity (Cell membrane [12]): Active
Activity (Cell membrane [13]): Active
Activity (Cell membrane [14]): Active
Activity (Cell membrane [15]): Active
Activity (Cell membrane [16]): Active
Activity (Cell membrane [17]): Active
Activity (Cell membrane [18]): Active
Activity (Cell membrane [19]): Active
Activity (Cell membrane [20]): Active
hemolysis at 0.5 h, 1 ug/ml [21]: 0%
hemolysis at 0.5 h, 2 ug/ml [22]: 0%
hemolysis at 0.5 h, 4 ug/ml [23]: 0%
hemolysis at 0.5 h, 8 ug/ml [24]: 0%
hemolysis at 0.5 h, 16 ug/ml [25]: 0.6%
hemolysis at 0.5 h, 32 ug/ml [26]: 1.6%
hemolysis at 0.5 h, 64 ug/ml [27]: 2%
Activity (Cell membrane [28]): Active
Activity (Cell membrane [29]): Active
Activity (Cell membrane [30]): Active
Activity (Cell membrane [31]): Active
Activity (Cell membrane [32]): Active
Activity (Cell membrane [33]): Active
